According to patent publication US10294226B2, “Small molecule inhibitors of the JAK family of kinases” (Janssen Pharmaceutica NV, priority 2016, dated 2019):
≈ marks a conversion by molar mass, not a printed value. Read-outs that look alike come from different tables or passages of the source.

Legend:
[1] = In vivo oral (p.o.) dosing, plasma and colon concentrations (Protocols 1 and 2); parameters: species or system female C57BL/6 mice; conditions: mice, 25 mg/kg p.o.
Protocol: These protocols are described below under the heading In vivo Studies. Three non-fasted female C57BL/6 mice were orally administered test compound at a dose of 25 mg/kg p.o. as a solution in 20% hydroxypropyl-beta-cyclodextrin (HPβCD) at a dose volume of 5 mL/kg. Blood samples were collected at 0.5, 2, and 4 h post dose via retro-orbital bleed or venipuncture of the dorsal metatarsal vein. Blood samples were collected into tubes containing anticoagulant (Heparin-Na) and placed on wet ice. […] Colon samples were collected at 4 h post dose. […] The colon was further washed by putting it in 5 mL of saline and shaken for 5 seconds. The colon sample was then patted dry, weighed, and homogenized as 1 part tissue (g) to 4 parts HPLC grade water (mL). Concentrations of the compound in plasma and colon homogenate were determined using a qualified liquid chromatography-triple quadrupole mass spectrometry (LC-MS/MS) method. […] Three non-fasted female C57BL/6 mice were orally administered test compound at a dose of 25 mg/kg p.o. as a solution in 20% HPβCD at a dose volume of 5 mL/kg. Blood samples were collected at 0.5, 2, and 4 h post dose via retro-orbital bleed or dorsal metatarsal vein. Blood samples were collected into tubes containing anticoagulant (Heparin-Na) and placed on wet ice. […] Colon samples were collected at 4 h post dose. […] The colon was further washed by putting it in 5 mL of saline and shaken for 5 seconds. The colon sample was then patted dry, weighed, and homogenized as 1 part tissue (g) to 4 parts HPLC grade water (mL). Concentrations of the compound in plasma and colon homogenate were determined using a qualified liquid chromatography-triple quadrupole mass spectrometry (LC-MS/MS) method.

physchem = conditions: thermodynamic from solid
[2] = MDCK-MDR1 permeability assay; assay type: in vitro ADME; conditions: MDCK-MDR1, pH 7.4, @ 5 μM, apical to basolateral, with P-gp inhibitor elacridar (2 μM); read-out: MDCK-MDR1 P^eapp(A-B)
Protocol: (§5) Permeability measurements were conducted according to the Cyprotex protocol using the MDCK-MDR1 cell line obtained from the NIH (Rockville, Md., USA). […] The cells in this assay form a cohesive sheet of a single cell layer filing the surface area of the culture dish, also known as a confluent monolayer, and on day four the test compound was added to the apical side of the membrane and the transport of the compound across the monolayer was monitored over a time period of 60 min.
(§6) Test compounds were dissolved in DMSO at a concentration of 10 mM. The dosing solutions were prepared by diluting test compound with assay buffer (Hanks Balanced Salt Solution), pH 7.4, at a final concentration of 5 μM. For assessment of apical to basolateral (“A-B”) permeability, buffer was removed from the apical compartment and replaced with test compound dosing solution with or without the permeability glycoprotein (“PgP”, “P-gP”, “Pgp” or “P-gp”) inhibitor elacridar (2 μM). For assessment of basolateral to apical (“B-A”) permeability, buffer was removed from the companion plate and replaced with test compound dosing solution. Incubations were carried out in duplicate at 37° C. in an atmosphere of 5% CO2 with a relative humidity of 95%. […] After incubation for 60 minutes, apical and basolateral samples were diluted and test compounds quantified by LC/MS/MS using an 8-point calibration in the range 0.0039 to 3 μM with appropriate dilution of the samples (receiver dilution factor=1; donor and C0 dilution factor=10). The permeability coefficient (Papp) for each compound was calculated from the following equation: Papp=(dQ/dt)/(C0×S), where dQ/dt is the rate of permeation of the drug across the cells, C0 is the donor compartment concentration at time zero, and S is the area of the cell monolayer.
(§7) The percent recovery was measured for all incubation conditions.
(§8) Papp(A-B) gives an indication of permeation extent across the cells in this assay, which is envisaged to model the transcellular transport across Pgp-expressing cells, such as Pgp-expressing gastrointestinal tract cells.
(§9) The integrity of each monolayer was monitored by examining the permeation of lucifer yellow by fluorimetric analysis.

P-gp (MDR1) = test: MDCK-MDR1 permeability assay; assay type: in vitro ADME; conditions: dog; for Papp A→B at 60 min, 5 μM: apical to basolateral; for Papp B→A at 60 min, 5 μM: MDCK-MDR1, pH 7.4, basolateral to apical; for efflux ratio at 60 min, 5 μM: pH 7.4, MDCK-MDR1, @ 5 μM, read-out: Papp(B-A)/Papp(A-B) efflux ratio
Protocol: as §5, §6, §7, §8, §9

IFNα pSTAT4 (JAK1/TYK2) = IFNα pSTAT4 (JAK1/TYK2) cellular assay, AlphaLISA in PBMCs; assay type: cell-based; conditions: PBMC, IFNα 4 ng/mL
Protocol: The AlphaLISA assay (based on Alpha Technology from PerkinElmer) was performed by first plating freshly thawed PBMCs (Biological Specialty Corporation) in 384-well plates at 100,000 cells per 6 μL per well in DMEM (Dulbecco's Modified Eagle Medium) containing 10% FBS (fetal bovine serum) and 1,000 I.U./mL penicillin and 1,000 μg/mL streptomycin. The cells were then treated with 2 μL/well of compounds diluted in DMSO at half-log titrated concentrations, with a highest test concentration of 10 μM and 0.5% final DMSO concentration, for thirty minutes at 37° C. Next, the cells were stimulated with 2 μL/well of IFNα (PBL Assay Science Cat. No. 11101-2) at 4 ng/mL for thirty minutes at 37° C. The cellular reactions were terminated by the addition of 2 μL/well of lysis buffer (PerkinElmer Cat. No. ALSU-PST4-A10K) followed by an incubation of five minutes at room temperature. 4 μL/well of acceptor mix (PerkinElmer Cat. No. ALSU-PST4-A10K) was added to the cells and incubated in the dark for one hour at room temperature. Then, 4 μL/well of donor mix (PerkinElmer Cat. No. ALSU-PST4-A10K) was added to the cells and incubated in the dark overnight at room temperature. Finally, the plates were read on a PerkinElmer EnVision for detection of the time-resolved fluorescence signal. The percentage of IFNα-dependent pSTAT4 inhibition was determined at the compound test concentrations; and for each compound, a dose curve was generated and the IC50 was calculated. Compound IC50 was calculated by nonlinear regression, sigmoidal dose response analysis of the half-log dilution titration curve of the compound concentration vs. Alpha signal. The term “Alpha” is defined in the immediately preceding cellular assay description.

IL-2 pSTAT5 (JAK1/JAK3) = IL-2 pSTAT5 (JAK1/JAK3) cellular assay, AlphaLISA in PBMCs; assay type: cell-based; conditions: PBMC, IL-2 5 ng/mL
Protocol: The AlphaLISA assay (based on Alpha Technology from PerkinElmer) was performed by first plating freshly thawed PBMCs (Biological Specialty Corporation) in 384-well plates at 30,000 cells per 4 μL per well in HBSS (Hanks' Balanced Salt Solution) containing 0.1% IgG (immunoglobulin G)-free, protease-free BSA (bovine serum albumin) (Jackson ImmunoResearch Cat. No. 001-000-161). The cells were then treated with 2 μL/well of compounds diluted in DMSO at half-log titrated concentrations, with a highest test concentration of 10 μM and 0.5% final DMSO concentration, for thirty minutes at 37° C. […] The cellular reactions were terminated by the addition of 2 μL/well of lysis buffer (PerkinElmer Cat. No. ALSU-PST5-A10K) followed by an incubation of five minutes at room temperature. 5 μL/well of acceptor mix (PerkinElmer Cat. No. ALSU-PST5-A10K) was added to the cells and incubated in the dark for one hour at room temperature. Then, 5 μL/well of donor mix (PerkinElmer Cat. No. ALSU-PST5-A10K) was added to the cells and incubated in the dark overnight at room temperature. Finally, the plates were read on a PerkinElmer EnVision for detection of the time-resolved fluorescence signal. The percentage of IL-2-dependent pSTAT5 inhibition was determined at the compound test concentrations; and for each compound, a dose curve was generated and the IC50 was calculated. Compound IC50 was calculated by nonlinear regression, sigmoidal dose response analysis of the half-log dilution titration curve of the compound concentration vs. Alpha signal. The acronym “Alpha” stands for amplified luminescent proximity homogeneous assay; the Alpha signal is a luminescent/fluorescent signal.

[3] = pH 6.5
JAK1-JH1JH2 = JAK1-JH1JH2 (Homo sapiens (Human), UniProt P23458); test: Enzymatic inhibition assay (HTMS); assay type: biochemical; conditions: 12.5 μM ATP; read-out: JAK1_JH1JH2 IC50
Description: (§1) JAK1-JH1JH2 (574-1154 with a His-GST Tag and a C-terminal tev (ENLYFQ-G) cleavage site), JAK3-JH1JH2 (512-1124 with a GST Tag and a C-terminal tev (ENLYFQ-G) cleavage site), and Tyk2-JH1JH2 (8H_tev_580-1182-C936A-C1142A with a C-terminal tev (ENLYFQ-G) cleavage site) were purified internally. […] LC/MS grade water and acetonitrile (ACN), were purchased from HoneyWell, Burdick & Jackson (Muskegon, Mich., USA). Dimethylsulfoxide 99.8% (DMSO) and trifluoroacetic acid 99.5% (TFA) were purchased from EMD Chemical (Gibbstown, N.J., USA). Adenosine triphosphate (ATP), 4-morpholinepropanesulfonic acid (MOPS), magnesium chloride (MgCl2), ethylenediaminetetraacetic acid (EDTA), dithiothreitol (DTT), formic acid>95% (FA) and Tween-20 were purchased from Sigma (St Louis, Mo., USA). 384-well polypropylene plates, Cat#781280 were purchased from Greiner (Monroe, N.C.), RapidFire™ cartridge A C4 Column (Agilent Technologies, Santa Clara, Calif.).
(§2) The HTMS experiments were performed in positive ionization mode on a RapidFire 300 instrument (Agilent Technologies, Santa Clara, Calif.), coupled with an ABSiex QTrap 4000 system with an Electrospray Ionization source (RF-MS) (Concord, ON, Canada). […] The entire system was operated using the RapidFire software interfaced with Analyst software for the mass spectrometer.
(§3) 11-point dosing series were made for each compound by serially diluting 1:3 or 1:4 in DMSO, with point 12 being a DMSO control. From the serial dilution plates, sample was transferred to a 384 wells assay plate (#781280, Greiner, Monroe, N.C.) using Labcyte Echo (Sunnyvale, Calif.), or Biosero ATS (San Diego, Calif.). The compounds were tested in duplicate. Column 12 was used for positive controls, and column 24 contained negative controls with no enzyme added. A compound from our internal collection, with inhibitory activity for JAK isoforms, was used as a reference compound. The final concentration of DMSO was ≤0.25% in a 20 μL reaction. The enzyme reaction was initiated by the addition of 10 μL of enzyme and ATP mixture to 10 μL of substrate solution prepared in reaction buffer (50 mM MOPS pH 7.5, 10 mM MgCl2, 1 mM EDTA, 2 mM DTT, 0.002% Tween-20). The Tyk2 enzyme was pre-incubated with 2 mM ATP for 30 min prior to the reaction initiation. Immediately after the addition of the enzyme to the reaction mixture, the plate was centrifuged at 1000 rpm for 1 minute and incubated at 25° C. for 45 minutes for JAK3 and 90 minutes for JAK1, JAK2 and Tyk2. The reaction was quenched by the addition of 20 μL of 0.5% TFA containing 0.15 μM of internal standard peptide using Multidrop Combi reagent dispenser (Thermo Scientific, Waltham, Mass.). […] After the quench, the assay plate was centrifuged at 3000 rpm for 3 minutes and sealed with pierceable aluminum foil (Cat#06644-001, Agilent) using a PlateLoc (Agilent Technologies, Santa Clara, Calif.). The plates then were transferred on to the RapidFire for the MS analysis. Compound inhibition was assessed by a decrease of the phosphorylated product levels in sample wells compared to the non-inhibited enzyme reaction.
(§4) The sample analysis on the RapidFire was performed using a mobile phase A1 consisting of Water/TFA/FA (100:0.01:0.1, v/v/v), a mobile phase B1 consisting of ACN/Water/TFA/FA (80:20:0.01:0.1, v/v/v). […] The samples were aspirated directly from the 384-well assay plate and delivered onto RF-MS microscale solid-phase C4 extraction cartridge (Type A). The undesired component such as salt, cofactor, detergent and large protein were washed out and the retained analytes (substrate, product and IS) were coeluted directly onto the AB Siex Qtrap 4000 system.

Tyk2-JH1JH2 = Tyk2-JH1JH2 (Homo sapiens (Human), UniProt P29597, C1142A/C936A); test: Enzymatic inhibition assay (HTMS); assay type: biochemical; conditions: 50 μM ATP; read-out: Tyk2_I_JH1JH2 IC50
Description: as §1, §2, §3, §4

JAK3-JH1JH2 = JAK3-JH1JH2 (Homo sapiens (Human), UniProt P52333); test: Enzymatic inhibition assay (HTMS); assay type: biochemical; conditions: 150 μM ATP; read-out: JAK3_I_JH1JH2 IC50
Description: as §1, §2, §3, §4

[4] = MDCK-MDR1, pH 7.4, @ 5 μM, without elacridar, read-out: MDCK-MDR1 Papp(A-B)
[5] = MDCK-MDR1, pH 7.4, with elacridar 2 μM, @ 5 μM, with P-gp inhibitor elacridar (2 μM), read-out: MDCK-MDR1 P^eapp(A-B)

Chain of Tyk2-JH1JH2 (P29597 580-1182 C936A/C1142A): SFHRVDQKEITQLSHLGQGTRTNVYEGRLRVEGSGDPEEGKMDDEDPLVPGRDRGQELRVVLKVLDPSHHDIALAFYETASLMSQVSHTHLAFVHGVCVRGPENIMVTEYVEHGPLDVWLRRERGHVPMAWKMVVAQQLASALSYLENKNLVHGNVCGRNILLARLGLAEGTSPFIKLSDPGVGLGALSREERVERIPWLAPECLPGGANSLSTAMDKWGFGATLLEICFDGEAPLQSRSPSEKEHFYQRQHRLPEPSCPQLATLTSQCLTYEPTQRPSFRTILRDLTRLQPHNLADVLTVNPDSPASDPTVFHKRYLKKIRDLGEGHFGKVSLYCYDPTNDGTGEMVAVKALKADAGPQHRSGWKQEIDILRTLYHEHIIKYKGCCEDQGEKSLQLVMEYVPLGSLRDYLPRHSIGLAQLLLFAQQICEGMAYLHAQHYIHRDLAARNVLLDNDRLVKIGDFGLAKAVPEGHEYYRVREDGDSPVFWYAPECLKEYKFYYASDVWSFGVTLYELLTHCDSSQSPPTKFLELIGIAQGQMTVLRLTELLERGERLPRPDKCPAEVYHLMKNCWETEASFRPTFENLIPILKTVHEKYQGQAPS
Chain of JAK1-JH1JH2 (P23458 574-1154): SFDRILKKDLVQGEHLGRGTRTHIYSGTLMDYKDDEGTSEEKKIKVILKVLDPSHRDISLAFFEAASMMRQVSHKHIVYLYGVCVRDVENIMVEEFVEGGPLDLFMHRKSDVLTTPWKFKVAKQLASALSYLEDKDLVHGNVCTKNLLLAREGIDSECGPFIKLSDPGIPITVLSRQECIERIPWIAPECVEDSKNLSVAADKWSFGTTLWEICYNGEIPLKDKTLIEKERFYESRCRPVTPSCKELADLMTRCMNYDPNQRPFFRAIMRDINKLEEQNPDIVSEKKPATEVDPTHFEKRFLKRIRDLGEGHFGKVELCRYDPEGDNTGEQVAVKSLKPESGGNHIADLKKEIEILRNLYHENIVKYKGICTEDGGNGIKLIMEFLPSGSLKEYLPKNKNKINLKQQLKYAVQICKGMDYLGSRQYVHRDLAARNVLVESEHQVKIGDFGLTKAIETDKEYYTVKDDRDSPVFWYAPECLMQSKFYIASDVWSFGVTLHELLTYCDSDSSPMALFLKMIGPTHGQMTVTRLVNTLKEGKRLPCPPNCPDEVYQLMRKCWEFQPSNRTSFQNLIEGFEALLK
Chain of JAK3-JH1JH2 (P52333 512-1124): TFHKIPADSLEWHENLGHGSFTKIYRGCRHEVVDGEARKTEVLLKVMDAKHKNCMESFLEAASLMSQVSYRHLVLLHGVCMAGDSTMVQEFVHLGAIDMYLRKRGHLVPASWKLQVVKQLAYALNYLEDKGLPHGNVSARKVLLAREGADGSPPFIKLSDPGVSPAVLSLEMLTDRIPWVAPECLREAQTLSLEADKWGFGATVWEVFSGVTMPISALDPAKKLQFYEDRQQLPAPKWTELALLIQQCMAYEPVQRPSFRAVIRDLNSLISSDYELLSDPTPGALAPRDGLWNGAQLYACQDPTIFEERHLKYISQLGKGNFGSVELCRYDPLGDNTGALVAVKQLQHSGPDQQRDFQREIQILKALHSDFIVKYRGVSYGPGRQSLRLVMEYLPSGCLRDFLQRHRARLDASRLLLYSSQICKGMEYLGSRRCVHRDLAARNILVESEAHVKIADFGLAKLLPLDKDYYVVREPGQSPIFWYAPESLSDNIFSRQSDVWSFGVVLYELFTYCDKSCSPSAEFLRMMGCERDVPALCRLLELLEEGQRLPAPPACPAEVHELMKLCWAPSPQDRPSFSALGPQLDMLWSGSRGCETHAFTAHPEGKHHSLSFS

SMILES	Plasma Concentration After p.o. Dosing, Mean ([1]; Time = 0.5 h)	Plasma Concentration After p.o. Dosing, Mean ([1]; Time = 2 h)	Colon Concentration After p.o. Dosing, Mean ([1]; Time = 4 h)	Plasma Concentration After p.o. Dosing, Mean ([1]; Time = 4 h)	solubility (physchem; pH 6.5, fassif)	solubility (physchem; simulated gastric fluid)	Papp A→B [2]	Papp A→B at 60 min, 5 μM (P-gp (MDR1); [4])	Papp B→A at 60 min, 5 μM (P-gp (MDR1); @ 5 μM)	efflux ratio at 60 min, 5 μM (P-gp (MDR1))	IC50 (IFNα pSTAT4 (JAK1/TYK2))	IC50 (IL-2 pSTAT5 (JAK1/JAK3))	Papp A→B at 60 min, 5 μM (P-gp (MDR1); [5])	SIF solubility [3]	IC50 (JAK1-JH1JH2)	IC50 (Tyk2-JH1JH2)	IC50 (JAK3-JH1JH2)
Cc1nc2cnc3[nH]ccc3c2n1[C@H]1CC[C@H](CC#N)CC1 [A]	347.0 ng/mL	69.1 ng/mL	895.0 ng/g	84.5 ng/mL	> 400 µM	> 400 µM	22 ×10⁻⁶ cm/s	1.3 ×10⁻⁶ cm/s	55.3 ×10⁻⁶ cm/s	43							
N#CC[C@H]1CC[C@H](n2c(CO)nc3cnc4[nH]ccc4c32)CC1 [B]	352.7 ng/mL	66.3 ng/mL	6076.7 ng/g	11.3 ng/mL	75 µM (≈ 23.2 µg/mL)	> 400 µM	1.7 ×10⁻⁶ cm/s	0.4 ×10⁻⁶ cm/s	23.5 ×10⁻⁶ cm/s	59							
Cn1cc(NC(=O)Cc2nc3cnc4[nH]ccc4c3n2[C@H]2CC[C@H](CC#N)CC2)cn1 [Ex. 9, 2-(1-((1r,4r)-4-(Cyanomethyl)cyclohexyl)-1,6-dihydroimidazo[4,5-d]pyrrolo[2,3-b]pyridin-2-yl)-N-(1-methyl-1H-pyrazol-4-yl)acetamide]											35.9 nM	11.2 nM	0.6 ×10⁻⁶ cm/s	>400 µM	0.2 nM	4.7 nM	79.9 nM
N#CC[C@H]1CC[C@H](n2c(CC(=O)Nc3cc[nH]n3)nc3cnc4[nH]ccc4c32)CC1 [Ex. 11, 2-(1-((1r,4r)-4-(Cyanomethyl)cyclohexyl)-1,6-dihydroimidazo[4,5-d]pyrrolo[2,3-b]pyridin-2-yl)-N-(1H-pyrazol-3-yl)acetamide]											96.5 nM	49.1 nM	0.8 ×10⁻⁶ cm/s	>400 µM	0.4 nM	1.5 nM	30.3 nM
